Counter-ions that a name gives are not always drawn.
test system: not listed separately; assay: Density of the pure solvent; assay type: physicochemical; conditions: not given
Description: Wt % of isobutanol in each layer was reported. The density of the pure solvent was also reported. […] Wt. iBuOH (mg) was calculated by wt % i-BuOH×0.5×density of pure solvent. For the aqueous solutions the density of both the pure water and salt solutions were assumed to be 1.0 g/ml. Kd was calculated both from concentration of i-BuOH in the organic/concentration of i-BuOH in the aqueous layer. It was calculated both from the w/w data and w/v data. The sum of the amounts of isobutanol found in both layers was calculated as a check on the data.

Compound | density [g/mL]
CCCCCCCCOC(=O)c1ccccc1C(=O)OCCCCCCCC [Dioctyl phthlate] | 0.985
CCCCCl [chlorobutane] | 0.886
Xylene | 0.879
nonyl phenol | 0.937

same assay, conditions: pure solvent

Compound | density [g/mL]
CCCCC(CC)CO (stereo not drawn) [2-Ethyl-1-hexanol] | 0.833
CCCCCCCCC(CO)CCCCCC (stereo not drawn) [2-Hexyl-1-decanol (Isofol 16), 2-Hexyl-1-decanol] | 0.836
CCCCCCC(CO)CCCC (stereo not drawn) [2-butyl-1-octanol] | 0.833
CC(CCO)CC(C)(C)C (stereo not drawn) [3,5,5-trimethyl-1-hexanol] | 0.824
CC(C)CCCC(C)CCO (stereo not drawn) [3,7-dimethyl-1-octanol] | 0.828
CCCCC(CC)COC(=O)/C=C\C(=O)OCC(CC)CCCC (stereo not drawn) [Bis(2-ethylhexyl) maleate] | 0.944
CCCCC(CC)COP(=O)(O)OCC(CC)CCCC (stereo not drawn) [Bis(2-ethylhexyl) phosphate] | 0.965
CC(C)=CCCC(C)=CCCC(C)=CCO [Farnesol] | 0.89
CCCCCCOCCCCCC [Hexyl Ether] | 0.793
CCCCC(CC)COC(=O)CCCCC(=O)OCC(CC)CCCC (stereo not drawn) [bis(2-ethylhexyl)adipate] | 0.925
CCCCC(CC)COC(=O)CCCCCCCCC(=O)OCC(CC)CCCC (stereo not drawn) [bis(2-ethylhexyl)sebacate] | 0.914
CCCCCCCCCCCC(=O)OCCCC [butyl dodecanoate] | 0.855
CCCCCCCCOC(=O)c1ccc(C(=O)OCCCCCCCC)cc1 [dioctyl terephthalate] | 0.986
CCCCCCOC(=O)c1ccccc1O [hexyl salicylate] | 1.04
CC(C)CCOCCC(C)C [i-Amyl Ether] | 0.78
CCCCCCCC/C=C\CCCCCCCCO [oleyl alcohol, reference compound] | 0.849
CC1COC(=O)O1 (stereo not drawn) [propylene carbonate] | 1.2

test system: ethanologen (Ethanol Red); assay: not given; conditions: not given

Compound | Glucose (g/L) 5.00 hrs Run 1 | Glucose (g/L) 5.00 hrs Run 2 | Glucose (g/L) […] Run 1 | Glucose (g/L) […] Run 2
CCCCC(CC)COP(=O)(O)OCC(CC)CCCC (stereo not drawn) [Bis(2-ethylhexyl) phosphate] | 20.3/20.6 g/L | 20.3/20.6 g/L | 20.0/20.2 g/L | 20.0/20.2 g/L
nonyl phenol | 20.3/20.3 g/L | 20.3/20.3 g/L | 20.6/20.0 g/L | 20.6/20.0 g/L

same assay, conditions: Saccharomyces cerevisiae

Compound | Glucose (g/L) 5.50 hrs Run 1 | Glucose (g/L) 5.50 hrs Run 2 | Glucose (g/L) […] Run 1 | Glucose (g/L) […] Run 2
CCCCC(CC)COC(=O)CCCCC(=O)OCC(CC)CCCC (stereo not drawn) [bis(2-ethylhexyl)adipate] | 0.0/0.0 g/L | 0.0/0.0 g/L | 0.0/0.0 g/L | 0.0/0.0 g/L
